This note sets out measurements from patent US6784174B1, “Pyridine and pyrimidine derivatives and their use as inhibitors of cytokine mediated disease” (AstraZeneca AB, priority 1999, dated 2004).

For the test, the target named is T1, p38α (Homo sapiens, UniProt Q16539).
T1 construct: c-myc (N); 6His (N); made in house; host or cells: E. coli (PET vectors)
The test is described as follows: In vitro enzyme assay, p38 kinase (p38α isoform). In kind it is biochemical. As for the experimental part:
The ability of compounds of the invention to inhibit the enzyme p38 kinase was assessed. Activity of particular test compounds against each of the p38α and p38β isoforms of the enzyme was determined.
Human recombinant MKK6 (GenBank Accesion Number G1209672) was isolated from Image clone 45578 (Genomics, 1996, 33, 151) and utilised to produce protein in the form of a GST fusion protein in a pGEX vector using analogous procedures to those disclosed by J. Han et al., Journal of Biological Chemistry, 1996, 271, 2886-2891. p38α (GenBank Accession Number G529039) and p38β (GenBank Accession Number G1469305) were isolated by PCR amplification of human lymphoblastoid cDNA (GenBank Accession Number GM1416) and human foetal brain cDNA [synthesised from mRNA (Clontech, catalogue no. 6525-1) using a Gibco superscript cDNA synthesis kit] respectively using oligonucleotides designed for the 5′ and 3′ ends of the human p38α and p38β genes using analogous procedures to those described by J. Han et al., Biochimica et Biophysica Acta, 1995, 126, 224-227 and Y. Jiang et al., Journal of Biological Chemistry, 1996, 271, 17920-17926.
Both p38 protein isoforms were expressed in e coli in PET vectors. Human recombinant p38α and p38β isoforms were produced as 5′ c-myc, 6His tagged proteins. Both MKK6 and the p38 proteins were purified using standard protocols: the GST MKK6 was purified using a glutathione sepharose column and the p38 proteins were purified using nickel chelate columns.
The p38 enzymes were activated prior to use by incubation with MKK6 for 3 hours at 30° C. The unactivated coli-expressed MKK6 retained sufficient activity to fully activate both isoforms of p38. The activation incubate comprised p38α (10 μl of 10 mg/ml) or p38β (10 μl of 5 mg/ml) together with MKK6 (10 μl of 1 mg/ml), ‘Kinase buffer’ [100 μl; pH 7.4 buffer comprising Tris (50 mM), EGTA (0.1 mM), sodium orthovanadate (0.1 mM) and β-mercaptoethanol (0.1%)] and MgATP (30 μl of 50 mM Mg(OCOCH3)2 and 0.5 mM ATP). This produced enough activated p38 enzyme for 3 Microtiter plates.
Test compounds were solubilised in DMSO and 10 μl of a 1:10 diluted sample in ‘Kinase Buffer’ was added to a well in a Microtiter plate. […] The precipitated protein was phosphorylated by p38 kinase and test compounds were assessed for their ability to inhibit this phosphorylation. The plates were filtered using a Canberra Packard Unifilter and washed with 2% TCA, dried overnight and counted on a Top Count scintillation counter.
Test compounds were tested initially at a single dose and active compounds were retested to allow IC50 values to be determined.

T1 sequence (Q16539 whole entry): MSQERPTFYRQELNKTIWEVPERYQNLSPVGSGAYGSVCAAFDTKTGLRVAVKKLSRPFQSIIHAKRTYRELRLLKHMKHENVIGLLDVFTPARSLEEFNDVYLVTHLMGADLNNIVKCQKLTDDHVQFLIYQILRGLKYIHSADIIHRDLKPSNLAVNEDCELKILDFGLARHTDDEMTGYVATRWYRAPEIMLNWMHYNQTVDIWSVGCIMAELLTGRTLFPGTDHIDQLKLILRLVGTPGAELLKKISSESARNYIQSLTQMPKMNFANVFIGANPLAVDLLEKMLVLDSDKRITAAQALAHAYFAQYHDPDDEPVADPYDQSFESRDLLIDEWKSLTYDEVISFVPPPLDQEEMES

Regarding `Cc1ccc(NC(=O)c2ccnc(N3CCOCC3)c2)cc1Nc1ncnc2ccsc12` [Example 1, 4-[2-Methyl-5-(2-morpholinopyridine-4-carboxamido)anilino]thieno[3,2-d]pyrimidine], inhibition was half-maximal at 60 nM (IC50).

`Cc1ccc(NC(=O)c2ccnc(N3CCOCC3)c2)cc1Nc1ncnc2scc(C)c12` [Example 2, 4-[2-Methyl-5-(2-morpholinopyridine-4-carboxamido)anilino]-5-methylthieno[2,3-d]pyrimidine]: half-maximal inhibition (IC50) was put at 340 nM.

For the molecule `Cc1ccc(NC(=O)c2ccnc(N3CCOCC3)c2)cc1Nc1ncnc2sccc12` [3(2)], the IC50 (usually the concentration needed to halve the response being measured) turned out to be 70 nM.

`Cc1ccc(NC(=O)c2ccnc(N3CCOCC3)c2)cc1Nc1ncnc2c(C)csc12` [3(1)] yielded an IC50 of 40 nM.
